According to PubChem BioAssay (NCI):
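A five-concentration, 48-hour dose response in 96-well plates underlies each endpoint, interpolated linearly between surrounding concentrations. GI50: concentration for 50% inhibition of growth. TGI is the concentration that stops growth completely.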

How the values were obtained:
Assay in all cases: DTP human tumour cell line panel, 48 h
KM12 colon = system: KM12 colon
SF-295 CNS = system: SF-295 CNS
SF-539 CNS = system: SF-539 CNS
MALME-3M melanoma = system: MALME-3M melanoma
SN12C renal = system: SN12C renal
K-562 leukemia = system: K-562 leukemia
IGROV1 ovarian = system: IGROV1 ovarian
KM20L2 colon = system: KM20L2 colon
A498 renal = system: A498 renal
EKVX NSCLC = system: EKVX NSCLC
HL-60(TB) leukemia = system: HL-60(TB) leukemia
RPMI-8226 leukemia = system: RPMI-8226 leukemia
786-0 renal = system: 786-0 renal
NCI-H226 lung = system: NCI-H226 lung
NCI-H460 lung = system: NCI-H460 lung
SNB-19 CNS = system: SNB-19 CNS
UACC-257 melanoma = system: UACC-257 melanoma
U251 CNS = system: U251 CNS
SW-620 colon = system: SW-620 colon
SK-MEL-5 melanoma = system: SK-MEL-5 melanoma
UO-31 renal = system: UO-31 renal
M19-MEL melanoma = system: M19-MEL melanoma
COLO 205 colon = system: COLO 205 colon
LOX IMVI melanoma = system: LOX IMVI melanoma
HCC-2998 colon = system: HCC-2998 colon
HCT-116 colon = system: HCT-116 colon
XF 498 CNS = system: XF 498 CNS
ACHN renal = system: ACHN renal
SNB-78 CNS = system: SNB-78 CNS
UACC-62 melanoma = system: UACC-62 melanoma
TK-10 renal = system: TK-10 renal
A549 NSCLC = system: A549 NSCLC
NCI-H522 lung = system: NCI-H522 lung
CCRF-CEM leukemia = system: CCRF-CEM leukemia
SK-MEL-28 melanoma = system: SK-MEL-28 melanoma
HCT-15 colon = system: HCT-15 colon
OVCAR-8 ovarian = system: OVCAR-8 ovarian
OVCAR-3 ovarian = system: OVCAR-3 ovarian
LXFL 529 NSCLC = system: LXFL 529 NSCLC
HOP-62 NSCLC = system: HOP-62 NSCLC
RXF 393 renal = system: RXF 393 renal
HOP-18 NSCLC = system: HOP-18 NSCLC
SK-OV-3 ovarian = system: SK-OV-3 ovarian
SNB-75 CNS = system: SNB-75 CNS
MOLT-4 leukemia = system: MOLT-4 leukemia
SF-268 CNS = system: SF-268 CNS
SK-MEL-2 melanoma = system: SK-MEL-2 melanoma
HT29 colon = system: HT29 colon
CAKI-1 renal = system: CAKI-1 renal
M14 melanoma = system: M14 melanoma
OVCAR-4 ovarian = system: OVCAR-4 ovarian
DMS 114 small cell lung = system: DMS 114 small cell lung
DMS 273 small cell lung = system: DMS 273 small cell lung
DLD-1 colon = system: DLD-1 colon
NCI-H23 lung = system: NCI-H23 lung
OVCAR-5 ovarian = system: OVCAR-5 ovarian
HOP-92 NSCLC = system: HOP-92 NSCLC

Work on CC(C)N(C(C)C)[PH+]1O[PH+](N(C(C)C)C(C)C)O[PH+](N(C(C)C)C(C)C)O[PH+](N(C(C)C)C(C)C)O[PH+](N(C(C)C)C(C)C)O1.[C-]#[O+].[C-]#[O+].[C-]#[O+].[C-]#[O+].[C-]#[O+].[C-]#[O+].[C-]#[O+].[Cr].[Cr] (centres undefined) yielded a GI50 (KM12 colon) of over 100 µM, a TGI (KM12 colon) of over 100 µM and a GI50 (SF-295 CNS) of over 100 µM. For the same molecule, the TGI (SF-295 CNS) was over 100 µM, the GI50 (SF-539 CNS) was over 100 µM and the TGI (SF-539 CNS) was over 100 µM. For the same molecule, the GI50 (MALME-3M melanoma) was over 100 µM, the TGI (MALME-3M melanoma) was over 100 µM and the GI50 (SN12C renal) was over 100 µM. For the same molecule, the TGI (SN12C renal) was over 100 µM, the GI50 (K-562 leukemia) was over 100 µM and the TGI (K-562 leukemia) was over 100 µM. The GI50 (IGROV1 ovarian) was over 100 µM, the TGI (IGROV1 ovarian) was over 100 µM and the GI50 (KM20L2 colon) was over 100 µM. For the same molecule, the TGI (KM20L2 colon) was over 100 µM, the GI50 (A498 renal) was over 100 µM and the TGI (A498 renal) was over 100 µM. For the same molecule, the GI50 (EKVX NSCLC) was over 100 µM, the TGI (EKVX NSCLC) was over 100 µM and the GI50 (HL-60(TB) leukemia) was over 100 µM. The TGI (HL-60(TB) leukemia) was over 100 µM, the GI50 (RPMI-8226 leukemia) was over 100 µM and the TGI (RPMI-8226 leukemia) was over 100 µM. The GI50 (786-0 renal) was over 100 µM, the TGI (786-0 renal) was over 100 µM and the GI50 (NCI-H226 lung) was over 100 µM. It also gave a TGI (NCI-H226 lung) of over 100 µM, a GI50 (NCI-H460 lung) of over 100 µM and a TGI (NCI-H460 lung) of over 100 µM. It also gave a GI50 (SNB-19 CNS) of over 100 µM, a TGI (SNB-19 CNS) of over 100 µM and a GI50 (UACC-257 melanoma) of over 100 µM. The TGI (UACC-257 melanoma) was over 100 µM, the GI50 (U251 CNS) was over 100 µM and the TGI (U251 CNS) was over 100 µM. For the same molecule, the GI50 (SW-620 colon) was over 100 µM, the TGI (SW-620 colon) was over 100 µM and the GI50 (SK-MEL-5 melanoma) was over 100 µM. It also gave a TGI (SK-MEL-5 melanoma) of over 100 µM, a GI50 (UO-31 renal) of over 100 µM and a TGI (UO-31 renal) of over 100 µM. For the same molecule, the GI50 (M19-MEL melanoma) was over 100 µM, the TGI (M19-MEL melanoma) was over 100 µM and the GI50 (COLO 205 colon) was over 100 µM. The TGI (COLO 205 colon) was over 100 µM, the GI50 (LOX IMVI melanoma) was over 100 µM and the TGI (LOX IMVI melanoma) was over 100 µM. It also gave a GI50 (HCC-2998 colon) of over 100 µM, a TGI (HCC-2998 colon) of over 100 µM and a GI50 (HCT-116 colon) of over 100 µM. It also gave a TGI (HCT-116 colon) of over 100 µM, a GI50 (XF 498 CNS) of over 100 µM and a TGI (XF 498 CNS) of over 100 µM. It also gave a GI50 (ACHN renal) of over 100 µM, a TGI (ACHN renal) of over 100 µM and a GI50 (SNB-78 CNS) of over 100 µM. It also gave a TGI (SNB-78 CNS) of over 100 µM, a GI50 (UACC-62 melanoma) of over 100 µM and a TGI (UACC-62 melanoma) of over 100 µM. It also gave a GI50 (TK-10 renal) of over 100 µM, a TGI (TK-10 renal) of over 100 µM and a GI50 (A549 NSCLC) of over 100 µM. The TGI (A549 NSCLC) was over 100 µM, the GI50 (NCI-H522 lung) was over 100 µM and the TGI (NCI-H522 lung) was over 100 µM. It also gave a GI50 (CCRF-CEM leukemia) of over 100 µM, a TGI (CCRF-CEM leukemia) of over 100 µM and a GI50 (SK-MEL-28 melanoma) of over 100 µM. For the same molecule, the TGI (SK-MEL-28 melanoma) was over 100 µM, the GI50 (HCT-15 colon) was over 100 µM and the TGI (HCT-15 colon) was over 100 µM. The GI50 (OVCAR-8 ovarian) was over 100 µM, the TGI (OVCAR-8 ovarian) was over 100 µM and the GI50 (OVCAR-3 ovarian) was over 100 µM. It also gave a TGI (OVCAR-3 ovarian) of over 100 µM, a GI50 (LXFL 529 NSCLC) of over 100 µM and a TGI (LXFL 529 NSCLC) of over 100 µM. It also gave a GI50 (HOP-62 NSCLC) of over 100 µM, a TGI (HOP-62 NSCLC) of over 100 µM and a GI50 (RXF 393 renal) of over 100 µM. For the same molecule, the TGI (RXF 393 renal) was over 100 µM, the GI50 (HOP-18 NSCLC) was over 100 µM and the TGI (HOP-18 NSCLC) was over 100 µM. It also gave a GI50 (SK-OV-3 ovarian) of over 100 µM, a TGI (SK-OV-3 ovarian) of over 100 µM and a GI50 (SNB-75 CNS) of 75.4 µM. It also gave a TGI (SNB-75 CNS) of over 100 µM, a GI50 (MOLT-4 leukemia) of over 100 µM and a TGI (MOLT-4 leukemia) of over 100 µM. The GI50 (SF-268 CNS) was over 100 µM, the TGI (SF-268 CNS) was over 100 µM and the GI50 (SK-MEL-2 melanoma) was over 100 µM. The TGI (SK-MEL-2 melanoma) was over 100 µM, the GI50 (HT29 colon) was over 100 µM and the TGI (HT29 colon) was over 100 µM. It also gave a GI50 (CAKI-1 renal) of over 100 µM, a TGI (CAKI-1 renal) of over 100 µM and a GI50 (M14 melanoma) of over 100 µM. The TGI (M14 melanoma) was over 100 µM, the GI50 (OVCAR-4 ovarian) was over 100 µM and the TGI (OVCAR-4 ovarian) was over 100 µM. It also gave a GI50 (DMS 114 small cell lung) of over 100 µM, a TGI (DMS 114 small cell lung) of over 100 µM and a GI50 (DMS 273 small cell lung) of over 100 µM. For the same molecule, the TGI (DMS 273 small cell lung) was over 100 µM, the GI50 (DLD-1 colon) was over 100 µM and the TGI (DLD-1 colon) was over 100 µM. The GI50 (NCI-H23 lung) was over 100 µM, the TGI (NCI-H23 lung) was over 100 µM and the GI50 (OVCAR-5 ovarian) was over 100 µM. For the same molecule, the TGI (OVCAR-5 ovarian) was over 100 µM, the GI50 (HOP-92 NSCLC) was over 100 µM and the TGI (HOP-92 NSCLC) was over 100 µM.
